We go through 1 compound from patent publication US20260242390A1, “TOTAL SYNTHESES OF PORTIMINE A AND ANALOGUES THEREOF AS SMALL MOLECULE MODULATORS OF NMD3” (priority 2023, published 2026).

The assay concerns Bcl2. The experiment in a line: Bcl2 protein level in Jurkat cells. Type of assay: cell-based, human. As to conditions: 6/12 hrs. The procedure: FIG. 7. Portimine A targets NMD3 and prevents polysome formation. […] (A) Immunoblot showing reduced NMD3 levels in shNMD3 Jurkat and HeLa cells. […] Jurkat cells were treated with 12.5 nM of PA for 12 or 24 hours. Jurkat and HeLa cells were treated with 5 nM or 150 nM of PA for 24 hours. Data represents mean±SD of biologically replicated experiments (n=3). […] Cell lysates were fractionated by sucrose gradient (5-50%) and each fraction were analyzed by western blot. eIF6 levels increase in 60S subunit fraction and decrease in ribosome-free fractions after PA treatment. RPS6, a 40S and polysome subunits marker, is decreased in polysome fractions after PA treatment. Results are representative of three independent experiments. […] Relative protein levels in each fraction were normalized to the peak fraction of the indicated protein from the DMSO cells and plotted. Data represents mean±SD of biologically replicated experiments (n=3). Statistical analysis was performed using multiple unpaired Student t-test. * p≤0.05; ** p≤0.01; *** p≤0.005; **** p≤0.0001. Treatment condition: Jurkat (5 M per condition); Incubate cells (1 M/mL) with inhibitors for 6 hr, 12 hr and 24 hr, respectively.
• 1) Portimine A and its functional analogs show stereo-selective acute toxicity in cancer cells (FIG. 1). […] (B) Structure of portimine related analogs: phenyl-portimine A (Ph-PA, 36) and epi-portimine A (ePA, 38). […]

Take `C=CC1=C[C@@H]2[C@@H]3O[C@]4(CC[C@H](O4)C(C)C[C@@H](O)C3=O)CC(O)C3=NCC[C@@]32CC1` (stereo partly shown) [PA, portimine A]: the Bcl2 levels entry is on record as “does not affect”.
